The values below are quoted from earlier work in patent US11793200B2, “Hypochlorous acid disinfectant and its production method” (SUPER AQUA INTERNATIONAL CO., LTD., priority 2019, dated 2023).

Molecules are shown by their SMILES.

For the series, the system named is coliform. Particulars: compared with hypochlorite ion (CLO-); both effective free chlorine; FIG. 2.

Regarding `OCl` [hypochlorous acid (HCLO), Hypochlorous acid], the “sterilization of hypochlorous acid (HCLO) relative to hypochlorite ion (CLO-)” value is 80 times.
